# From ChEMBL document CHEMBL4265930, “Dual potent ALK and ROS1 inhibitors combating drug-resistant mutants: Synthesis and biological evaluation of aminopyridine-containing diarylaminopyrimidine derivatives” (Eur J Med Chem, 2018)
# The source made the active and inactive calls. The rule behind the calls is not given here.
# What was measured:
# HCC78 = assay: Antiproliferative activity against human HCC78 cells harboring SLC34A2-ROS1 after 72 hrs by MTT assay; type: functional, cell-based; conditions: HCC78, 72 h
# NCI-H2228 = assay: cells; conditions: Homo sapiens, NCI-H2228, 72 h
# Description: Antiproliferative activity against human NCI-H2228 cells harboring EML4-ALK after 72 hrs by MTT assay
# KARPAS-299 [1] = assay: cells; conditions: Homo sapiens, KARPAS-299, 72 h
# Description: Antiproliferative activity against human KARPAS299 cells harboring NPM-ALK after 72 hrs by MTT assay
# BaF3 = assay: cells; conditions: Mus musculus, BaF3, 72 h
# A549 = assay: cells; conditions: Homo sapiens, A549, 72 h
# Description: Antiproliferative activity against human A549 cells after 72 hrs by MTT assay
# [2] = biological target: ALK tyrosine kinase receptor (Homo sapiens, UniProt Q9UM73, L1196M)
# Description: Inhibition of human N-terminal GST-tagged ALK L1196M mutant cytoplasmic domain (1058 to 1620 residues) expressed in baculovirus expression system after 1 hr by mobility shift assay
# [3] = biological target: T1, ALK tyrosine kinase receptor (Homo sapiens, UniProt Q9UM73)
# Description: Inhibition of human N-terminal GST-tagged ALK cytoplasmic domain (1058 to 1620 residues) expressed in baculovirus expression system after 1 hr by mobility shift assay
# [4] = biological target: ALK tyrosine kinase receptor (Homo sapiens, UniProt Q9UM73, G1202R)
# [5] = biological target: Proto-oncogene tyrosine-protein kinase ROS (Homo sapiens, UniProt P08922); assay: Inhibition of human N-terminal GST-tagged ROS cytoplasmic domain (1883 to 2347 residues) expressed in baculovirus expression system after 1 hr by mobility shift assay
# [6] = biological target: Epidermal growth factor receptor (Homo sapiens, UniProt P00533)
# Description: Inhibition of human N-terminal GST-tagged EGFR cytoplasmic domain (669 to 1210 residues) expressed in baculovirus expression system after 1 hr by mobility shift assay
# [7] = tested on: ALK tyrosine kinase receptor (Homo sapiens), Q9UM73 [L1196M]; assay: Potency index, ratio of ceritinib IC50 to compound IC50 for human N-terminal GST-tagged ALK L1196M mutant cytoplasmic domain (1058 to 1620 residues) expressed in baculovirus expression system
# [8] = tested on: ALK tyrosine kinase receptor (Homo sapiens), Q9UM73 [G1202R]; assay: Potency index, ratio of ceritinib IC50 to compound IC50 for human N-terminal GST-tagged ALK G1202R mutant cytoplasmic domain (1058 to 1620 residues) expressed in baculovirus expression system
# [9] = biological target: T1, ALK tyrosine kinase receptor; assay: Inhibition of ALK phosphorylation in human KARPAS299 cells after 24 hrs by Western blot analysis; type: cell-based
# [10] = biological target: T1, ALK tyrosine kinase receptor; assay: Inhibition of ALK in human KARPAS299 cells assessed as decrease in Akt phosphorylation after 24 hrs by Western blot analysis; type: cell-based
# [11] = biological target: T1, ALK tyrosine kinase receptor; assay: Inhibition of ALK in human KARPAS299 cells assessed as decrease in STAT3 phosphorylation after 24 hrs by Western blot analysis; type: cell-based
# KARPAS-299 [12] = assay: Induction of apoptosis in human KARPAS299 cells assessed as late apoptotic cells at 25 to 50 nM after 24 hrs by AO/EB double staining based inverted fluorescence microscopy; type: functional, cell-based
# KARPAS-299 [13] = assay: Induction of apoptosis in human KARPAS299 cells assessed as early apoptotic cells at 25 to 50 nM after 24 hrs by Hoechst 33258 staining based inverted fluorescence microscopy; type: functional, cell-based
# Epidermal growth factor receptor, sequence (P00533 whole entry, the tested form may be a part): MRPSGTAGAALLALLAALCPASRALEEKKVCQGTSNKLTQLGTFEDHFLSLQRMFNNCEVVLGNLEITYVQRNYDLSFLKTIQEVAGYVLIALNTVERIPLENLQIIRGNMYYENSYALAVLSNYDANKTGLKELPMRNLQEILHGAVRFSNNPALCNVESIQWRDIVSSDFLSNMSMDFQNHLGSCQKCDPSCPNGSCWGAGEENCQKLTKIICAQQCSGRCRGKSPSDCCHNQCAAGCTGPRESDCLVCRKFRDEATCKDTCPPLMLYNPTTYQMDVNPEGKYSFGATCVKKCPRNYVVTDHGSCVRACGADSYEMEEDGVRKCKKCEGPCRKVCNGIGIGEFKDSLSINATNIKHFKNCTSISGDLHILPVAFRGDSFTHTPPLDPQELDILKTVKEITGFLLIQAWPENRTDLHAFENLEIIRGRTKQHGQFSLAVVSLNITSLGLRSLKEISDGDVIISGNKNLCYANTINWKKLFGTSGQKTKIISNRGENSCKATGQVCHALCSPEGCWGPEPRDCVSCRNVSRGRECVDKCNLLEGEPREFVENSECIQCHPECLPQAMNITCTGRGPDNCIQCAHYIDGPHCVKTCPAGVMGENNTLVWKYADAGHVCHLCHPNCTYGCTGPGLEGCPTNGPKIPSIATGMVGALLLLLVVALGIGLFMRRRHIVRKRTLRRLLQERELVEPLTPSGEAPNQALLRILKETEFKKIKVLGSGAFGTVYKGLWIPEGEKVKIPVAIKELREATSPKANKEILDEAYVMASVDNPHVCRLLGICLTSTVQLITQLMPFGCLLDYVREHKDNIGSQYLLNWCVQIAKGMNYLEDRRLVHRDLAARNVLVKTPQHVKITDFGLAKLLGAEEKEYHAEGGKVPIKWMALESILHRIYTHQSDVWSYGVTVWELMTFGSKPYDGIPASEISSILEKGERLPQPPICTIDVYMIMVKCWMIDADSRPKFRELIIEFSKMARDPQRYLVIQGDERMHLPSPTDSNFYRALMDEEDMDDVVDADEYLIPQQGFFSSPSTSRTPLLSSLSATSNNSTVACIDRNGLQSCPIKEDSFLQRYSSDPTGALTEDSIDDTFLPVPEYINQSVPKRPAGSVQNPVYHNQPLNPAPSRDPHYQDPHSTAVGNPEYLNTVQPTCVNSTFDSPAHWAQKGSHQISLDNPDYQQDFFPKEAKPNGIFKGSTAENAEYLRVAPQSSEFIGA
# ALK tyrosine kinase receptor (Homo sapiens, UniProt Q9UM73, G1202R), sequence (Q9UM73 19-1620 G1202R limits assumed): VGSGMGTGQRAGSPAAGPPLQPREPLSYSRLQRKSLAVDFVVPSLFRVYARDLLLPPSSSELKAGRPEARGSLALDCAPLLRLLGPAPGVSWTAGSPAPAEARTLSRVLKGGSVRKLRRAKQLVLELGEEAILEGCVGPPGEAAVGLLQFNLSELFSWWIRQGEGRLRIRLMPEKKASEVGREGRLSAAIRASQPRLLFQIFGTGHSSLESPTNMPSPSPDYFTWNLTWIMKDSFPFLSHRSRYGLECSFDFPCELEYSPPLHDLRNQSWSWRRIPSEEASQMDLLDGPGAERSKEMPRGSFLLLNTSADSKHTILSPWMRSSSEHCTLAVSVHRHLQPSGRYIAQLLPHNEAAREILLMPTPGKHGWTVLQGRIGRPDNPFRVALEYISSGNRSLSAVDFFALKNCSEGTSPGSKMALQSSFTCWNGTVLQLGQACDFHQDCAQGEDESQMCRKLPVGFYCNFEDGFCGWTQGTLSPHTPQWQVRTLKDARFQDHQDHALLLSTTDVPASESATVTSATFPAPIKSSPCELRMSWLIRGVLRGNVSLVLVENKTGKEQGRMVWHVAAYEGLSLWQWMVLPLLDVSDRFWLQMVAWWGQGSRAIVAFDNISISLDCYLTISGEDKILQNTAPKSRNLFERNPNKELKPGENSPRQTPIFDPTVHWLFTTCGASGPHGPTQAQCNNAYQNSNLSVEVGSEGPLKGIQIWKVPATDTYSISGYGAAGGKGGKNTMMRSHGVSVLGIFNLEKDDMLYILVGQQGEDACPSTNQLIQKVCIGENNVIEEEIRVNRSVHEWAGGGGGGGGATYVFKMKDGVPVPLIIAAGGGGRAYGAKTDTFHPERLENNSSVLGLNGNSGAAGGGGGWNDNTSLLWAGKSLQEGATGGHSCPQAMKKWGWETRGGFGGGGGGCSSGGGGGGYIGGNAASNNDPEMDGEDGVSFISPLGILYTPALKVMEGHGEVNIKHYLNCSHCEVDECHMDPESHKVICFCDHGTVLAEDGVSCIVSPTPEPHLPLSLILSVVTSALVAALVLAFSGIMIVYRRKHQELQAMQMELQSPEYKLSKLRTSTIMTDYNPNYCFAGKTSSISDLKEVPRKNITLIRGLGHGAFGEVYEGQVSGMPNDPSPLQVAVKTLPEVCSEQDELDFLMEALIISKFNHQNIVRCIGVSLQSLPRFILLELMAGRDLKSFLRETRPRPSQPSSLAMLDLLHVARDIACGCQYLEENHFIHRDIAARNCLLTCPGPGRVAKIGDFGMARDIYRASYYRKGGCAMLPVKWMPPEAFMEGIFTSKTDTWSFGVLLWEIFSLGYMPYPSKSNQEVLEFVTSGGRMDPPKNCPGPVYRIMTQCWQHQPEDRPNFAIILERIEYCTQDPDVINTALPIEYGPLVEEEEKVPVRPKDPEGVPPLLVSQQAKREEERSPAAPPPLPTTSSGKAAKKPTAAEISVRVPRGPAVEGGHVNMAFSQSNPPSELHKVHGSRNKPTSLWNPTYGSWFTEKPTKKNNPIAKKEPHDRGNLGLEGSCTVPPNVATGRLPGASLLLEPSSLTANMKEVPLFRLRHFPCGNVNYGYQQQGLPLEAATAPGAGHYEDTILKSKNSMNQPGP
# Proto-oncogene tyrosine-protein kinase ROS, sequence (P08922 whole entry, the tested form may be a part): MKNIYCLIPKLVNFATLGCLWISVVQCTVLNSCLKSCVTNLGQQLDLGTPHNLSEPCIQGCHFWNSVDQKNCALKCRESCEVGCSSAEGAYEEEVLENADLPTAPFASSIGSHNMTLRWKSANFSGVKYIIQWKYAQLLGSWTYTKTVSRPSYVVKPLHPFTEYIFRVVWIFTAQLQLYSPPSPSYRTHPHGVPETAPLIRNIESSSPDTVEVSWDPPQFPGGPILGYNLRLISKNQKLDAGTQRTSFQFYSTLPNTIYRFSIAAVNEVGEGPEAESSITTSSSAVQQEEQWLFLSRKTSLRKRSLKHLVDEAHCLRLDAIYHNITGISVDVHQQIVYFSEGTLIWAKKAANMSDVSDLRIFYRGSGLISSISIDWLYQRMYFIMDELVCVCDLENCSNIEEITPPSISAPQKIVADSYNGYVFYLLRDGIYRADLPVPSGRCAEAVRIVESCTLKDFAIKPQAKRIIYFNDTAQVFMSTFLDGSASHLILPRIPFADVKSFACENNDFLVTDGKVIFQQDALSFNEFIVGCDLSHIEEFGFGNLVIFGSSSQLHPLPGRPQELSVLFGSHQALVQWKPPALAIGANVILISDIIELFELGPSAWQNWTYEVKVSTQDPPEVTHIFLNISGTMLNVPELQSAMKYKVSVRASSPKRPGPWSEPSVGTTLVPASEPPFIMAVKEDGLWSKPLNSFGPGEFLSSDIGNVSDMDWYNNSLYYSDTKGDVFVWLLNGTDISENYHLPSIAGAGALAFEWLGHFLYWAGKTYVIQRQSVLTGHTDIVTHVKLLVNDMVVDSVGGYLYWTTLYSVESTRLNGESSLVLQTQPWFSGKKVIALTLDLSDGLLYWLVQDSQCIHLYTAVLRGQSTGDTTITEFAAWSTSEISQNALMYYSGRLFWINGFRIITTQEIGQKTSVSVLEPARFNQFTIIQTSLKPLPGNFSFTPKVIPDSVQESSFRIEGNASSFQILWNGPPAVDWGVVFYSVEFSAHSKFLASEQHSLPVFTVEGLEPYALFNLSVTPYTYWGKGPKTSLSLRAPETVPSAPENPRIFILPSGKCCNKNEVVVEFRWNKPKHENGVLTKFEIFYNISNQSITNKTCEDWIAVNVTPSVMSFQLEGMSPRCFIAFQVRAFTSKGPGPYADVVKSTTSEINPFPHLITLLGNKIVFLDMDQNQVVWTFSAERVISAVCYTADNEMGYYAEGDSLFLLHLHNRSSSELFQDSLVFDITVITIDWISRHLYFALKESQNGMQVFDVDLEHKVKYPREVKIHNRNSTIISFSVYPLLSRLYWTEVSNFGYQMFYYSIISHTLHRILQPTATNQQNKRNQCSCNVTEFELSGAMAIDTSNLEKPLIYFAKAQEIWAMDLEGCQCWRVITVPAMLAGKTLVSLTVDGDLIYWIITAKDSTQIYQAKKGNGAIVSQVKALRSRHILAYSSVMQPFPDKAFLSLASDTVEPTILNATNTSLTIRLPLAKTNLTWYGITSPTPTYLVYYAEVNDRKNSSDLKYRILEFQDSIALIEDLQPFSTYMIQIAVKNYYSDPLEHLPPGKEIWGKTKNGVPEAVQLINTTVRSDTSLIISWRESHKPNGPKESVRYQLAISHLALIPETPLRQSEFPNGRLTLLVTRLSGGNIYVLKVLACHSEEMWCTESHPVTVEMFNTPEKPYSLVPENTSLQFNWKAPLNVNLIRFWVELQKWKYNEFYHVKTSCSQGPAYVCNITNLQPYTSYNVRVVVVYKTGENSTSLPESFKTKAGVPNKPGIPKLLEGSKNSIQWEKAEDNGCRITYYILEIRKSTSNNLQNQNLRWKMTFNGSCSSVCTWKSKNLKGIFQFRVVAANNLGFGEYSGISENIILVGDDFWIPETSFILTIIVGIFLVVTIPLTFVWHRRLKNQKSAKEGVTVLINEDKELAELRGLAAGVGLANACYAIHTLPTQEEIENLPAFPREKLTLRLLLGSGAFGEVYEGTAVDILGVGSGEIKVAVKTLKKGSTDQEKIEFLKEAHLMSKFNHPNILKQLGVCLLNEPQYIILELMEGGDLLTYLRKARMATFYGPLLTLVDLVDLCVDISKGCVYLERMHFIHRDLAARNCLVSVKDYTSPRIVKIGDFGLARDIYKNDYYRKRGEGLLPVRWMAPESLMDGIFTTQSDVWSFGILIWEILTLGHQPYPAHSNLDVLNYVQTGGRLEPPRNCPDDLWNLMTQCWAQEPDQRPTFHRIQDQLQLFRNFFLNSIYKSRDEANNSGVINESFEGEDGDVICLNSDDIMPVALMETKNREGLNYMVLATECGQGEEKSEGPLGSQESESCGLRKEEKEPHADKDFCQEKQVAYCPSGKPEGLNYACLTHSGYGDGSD
Compound,IC50 (HCC78) [µM],IC50 (NCI-H2228) [µM],IC50 (KARPAS-299 [1]) [µM],IC50 (BaF3) [µM],IC50 (A549) [µM],IC50 [2] [µM],IC50 [3] [µM],IC50 [4] [µM],IC50 [5] [µM],IC50 [6] [µM],Ratio IC50 [7],Ratio IC50 [8],inhibition [9],inhibition [10],inhibition [11],Activity (KARPAS-299 [12]),Activity (KARPAS-299 [13])
CCN(CC)c1ccc(Nc2ncc(Cl)c(Nc3ccccc3NS(=O)(=O)C3CC3)n2)c(OC)n1,0.26,0.64,0.46,0.12,> 1,–,–,–,–,–,–,–,–,–,–,–,–
CCN(CC)c1ccc(Nc2ncc(Cl)c(Nc3ccccc3NS(C)(=O)=O)n2)c(OC)n1,0.31,0.36,0.06,0.18,> 1,–,–,–,–,–,–,–,–,–,–,–,–
COc1nc(N2CCN(C)CC2)ccc1Nc1ncc(Cl)c(Nc2ccccc2NS(=O)(=O)C2CC2)n1,0.27,0.06,0.028,0.09,> 1,3.9,3.9,6,4.6,> 1000,–,–,–,–,–,–,–
COc1nc(N2CC(O)C2)ccc1Nc1ncc(Cl)c(Nc2ccccc2NS(C)(=O)=O)n1,0.035,0.042,0.06,0.032,> 1,2,1.4,5.2,1.6,> 1000,–,–,–,–,–,–,–
CS(=O)(=O)Nc1ccccc1Nc1nc(Nc2ccc(N3CCCC3)nc2)ncc1Cl,0.08,0.48,0.08,0.74,> 1,–,–,–,–,–,–,–,–,–,–,–,–
CC(C)Oc1nc(N2CCCC2)ccc1Nc1ncc(Cl)c(Nc2ccccc2NS(C)(=O)=O)n1,0.09,0.41,0.31,0.85,0.82,–,–,–,–,–,–,–,–,–,–,–,–
COc1nc(N2CCN(CCO)CC2)ccc1Nc1ncc(Cl)c(Nc2ccccc2NS(C)(=O)=O)n1,0.11,0.07,0.038,0.09,> 1,2.2,3.2,7.8,3.4,> 1000,–,–,–,–,–,–,–
CC(C)Oc1nc(N2CCN(C)CC2)ccc1Nc1ncc(Cl)c(Nc2ccccc2NS(C)(=O)=O)n1,0.26,0.046,0.018,0.88,0.88,4.8,4.2,9.4,2,> 1000,–,–,–,–,–,–,–
COc1nc(N2CC(O)C2)ccc1Nc1ncc(Cl)c(Nc2ccccc2NS(=O)(=O)C2CC2)n1,0.09,0.05,0.11,0.07,> 1,–,–,–,–,–,–,–,–,–,–,–,–
CN1CCN(c2ccc(Nc3ncc(Cl)c(Nc4ccccc4NS(=O)(=O)C4CC4)n3)cn2)CC1,0.09,0.14,0.06,0.44,> 1,–,–,–,–,–,–,–,–,–,–,–,–
CC(C)Sc1nc(N2CCCC2)ccc1Nc1ncc(Cl)c(Nc2ccccc2NS(C)(=O)=O)n1,0.32,0.98,0.75,> 1,> 1,–,–,–,–,–,–,–,–,–,–,–,–
COc1nc(N2CCN(C)CC2)ccc1Nc1ncc(Cl)c(Nc2ccccc2NS(C)(=O)=O)n1,0.043,0.012,0.01,0.03,> 1,1.3,2.1,3.9,2.3,> 1000,11 to 23,11 to 23,Dose-dependent effect,Dose-dependent effect,Dose-dependent effect,Active,Active
COc1nc(N2CCSCC2)ccc1Nc1ncc(Cl)c(Nc2ccccc2NS(C)(=O)=O)n1,0.08,0.024,0.027,0.05,0.85,1.6,2.8,7.9,6.1,> 1000,–,–,–,–,–,–,–
Cc1cc(Nc2ncc(Cl)c(Nc3ccccc3S(=O)(=O)C(C)C)n2)c(OC(C)C)cc1C1CCNCC1 [CERITINIB],–,0.026,0.041,> 1,> 1,–,–,–,–,–,–,–,–,–,–,–,–

# Further lines, with some results ahead:
IC50 (HCC78) [µM],IC50 (NCI-H2228) [µM],IC50 (KARPAS-299 [1]) [µM],IC50 (BaF3) [µM],IC50 (A549) [µM],Compound,IC50 [2] [µM],IC50 [3] [µM],IC50 [4] [µM],IC50 [5] [µM],IC50 [6] [µM],Ratio IC50 [7],Ratio IC50 [8],inhibition [9],inhibition [10],inhibition [11],Activity (KARPAS-299 [12]),Activity (KARPAS-299 [13])
0.13,0.42,0.34,> 1,> 1,CC(C)Sc1nc(N2CCN(C)CC2)ccc1Nc1ncc(Cl)c(Nc2ccccc2NS(C)(=O)=O)n1,–,–,–,–,–,–,–,–,–,–,–,–
0.41,0.27,0.072,0.11,> 1,C/C=C/C(=O)Nc1ccccc1Nc1nc(Nc2ccc(N3CCN(C)CC3)nc2OC)ncc1Cl,–,–,–,–,–,–,–,–,–,–,–,–
0.14,0.16,0.027,0.09,0.7,COc1nc(N2CCN(C)CC2)ccc1Nc1ncc(Cl)c(Nc2ccccc2NC(C)=O)n1,–,–,–,–,–,–,–,–,–,–,–,–
0.24,0.17,0.08,0.13,0.71,COc1nc(N2CCCC2)ccc1Nc1ncc(Cl)c(Nc2ccccc2NS(C)(=O)=O)n1,–,–,–,–,–,–,–,–,–,–,–,–
0.16,0.38,0.22,0.3,> 1,C/C=C/C(=O)Nc1ccccc1Nc1nc(Nc2ccc(N3CCCC3)nc2OC)ncc1Cl,–,–,–,–,–,–,–,–,–,–,–,–
0.21,0.36,0.08,0.23,> 1,C/C=C/C(=O)Nc1ccccc1Nc1nc(Nc2ccc(N3CCCCC3)nc2OC)ncc1Cl,–,–,–,–,–,–,–,–,–,–,–,–
0.24,0.41,0.12,> 1,> 1,COc1nc(N2CCCC2)ccc1Nc1ncc(Cl)c(Nc2ccccc2NS(=O)(=O)C2CC2)n1,–,–,–,–,–,–,–,–,–,–,–,–
0.92,> 1,0.58,> 1,> 1,C/C=C/C(=O)Nc1ccccc1Nc1nc(Nc2ccc(N3CCNC(C)C3)nc2OC)ncc1Cl (stereo unspecified),–,–,–,–,–,–,–,–,–,–,–,–
0.48,0.09,0.055,0.17,> 1,COc1nc(N2CCOCC2)ccc1Nc1ncc(Cl)c(Nc2ccccc2NS(=O)(=O)C2CC2)n1,–,–,–,–,–,–,–,–,–,–,–,–
0.44,0.49,0.39,> 1,> 1,COc1nc(N2CCNC(C)C2)ccc1Nc1ncc(Cl)c(Nc2ccccc2NS(C)(=O)=O)n1 (stereo unspecified),–,–,–,–,–,–,–,–,–,–,–,–
0.39,0.27,0.48,0.63,> 1,COc1nc(N2CCCCC2)ccc1Nc1ncc(Cl)c(Nc2ccccc2NS(=O)(=O)C2CC2)n1,–,–,–,–,–,–,–,–,–,–,–,–
0.74,0.95,0.88,> 1,> 1,CCN1CCN(c2ccc(Nc3ncc(Cl)c(Nc4ccccc4NS(C)(=O)=O)n3)c(OC)n2)CC1,–,–,–,–,–,–,–,–,–,–,–,–
0.13,0.018,0.035,0.04,> 1,COc1nc(N2CCN(CCO)CC2)ccc1Nc1ncc(Cl)c(Nc2ccccc2NS(=O)(=O)C2CC2)n1,–,–,–,–,–,–,–,–,–,–,–,–
0.19,0.13,0.04,0.33,> 1,COc1nc(N2CCCCC2)ccc1Nc1ncc(Cl)c(Nc2ccccc2NS(C)(=O)=O)n1,–,–,–,–,–,–,–,–,–,–,–,–
0.07,0.08,0.04,0.78,0.85,CN1CCN(c2ccc(Nc3ncc(Cl)c(Nc4ccccc4NS(C)(=O)=O)n3)cn2)CC1,–,–,–,–,–,–,–,–,–,–,–,–
